Source: patent US10047057B2, “Functionalized tyrosine kinase inhibitors modified with precious metal electrophiles and methods associated therewith” (WAKE FOREST UNIVERSITY, priority 2014, dated 2018)

Tests used:
NCI-H460 cells = experiment: Cell proliferation assay (Celltiter 96), NCI-H460; conditions: Homo sapiens, NCI-H460, read-out: IC50 NCI-H460
Description: (§1) The cell line NCI-H460 is a model of a large-cell carcinoma and is characterized by wild-type EGFR-TK. By contrast, NCI-H1975 adenocarcinoma cells harbor a point mutation (L858R) in exon 21 as well as a secondary mutation (T790M) at the bottom of the hydrophobic ATP binding pocket.
(§2) The human non-small cell lung cancer cell lines, NCI-H460 (large cell) and NCI-H1975 (adenocarcinoma), were obtained from the American Type Culture Collection (Rockville, Md., USA). […] Cells were incubated at a constant temperature at 37° C. in a humidified atmosphere containing 5% CO2 and were subcultured every 2 to 3 days in order to maintain cells in logarithmic growth. The cytotoxicity studies were carried out according to a standard protocol using the Celltiter 96 aqueous nonradioactive cell proliferation assay kit (Promega, Madison, Wis.). Stock solutions (10 mM) of all drugs were made in DMF and serially diluted with media prior to incubation with cancer cells. IC50 values were calculated from dose-response curves using sigmoidal curve fits in GraphPad Prism (GraphPad Software, La Jolla, Calif.).

NCI-H1975 cells = experiment: Cell proliferation assay (Celltiter 96), NCI-H1975; conditions: read-out: IC50 NCI-H1975; Table 1; IC50 ± S.D., two experiments in triplicate; L858R/T790M EGFR
Description: as §1, §2

- IC50 (NCI-H460 cells): 36 ± 4.4 µM
- IC50 (NCI-H1975 cells): 51.7 ± 1.1 µM
Compound: CCOc1cc2ncnc(Nc3ccc(F)c(Cl)c3)c2cc1N(C)C(=S)NC [Compound 7, 1-(4-((3-Chloro-4-fluorophenyl)amino)-7-ethoxyquinazolin-6-yl)-1,3-dimethylthiourea]
